Values quoted from earlier work as cited in US9205152B2, “Melt-blended protein composition” (Kimberly-Clark Worldwide, Inc., priority 2010, dated 2015).

Conditions: pH prior to incorporation into the composition

pH: about 6
Structure (SMILES): OCC(O)CO [glycerol]
